Columns and labels:
[1] = test system: transient focal cerebral ischemia (tMCAO) in mice; test: Neurological function tests (sensorimotor deficits) after tMCAO; assay type: in vivo, mouse; settings: normotensive mice, 1-14 days monitor and behavior test after stroke
Excerpt: (§1) FIGS. 2A-2D: Efficacy of NKCC1 inhibitors on improving neurological function in mice after tMCAO (see Example 3). (A) Neurological score, (B) corner test, (C) foot-fault test, and (D)-(E) adhesive tape test during 1-14 day after tMCAO. Data are mean±SD, n=4-9. *p<0.05 for DMSO vs STS66, **p<0.05 for DMSO vs STS5, ***p<0.05 for DMSO vs BMT, #p<0.05 for BMT vs STS66, ###p<0.05 for STS5 vs STS66.
(§2) Transient focal cerebral ischemia was induced in mice by intraluminal occlusion of the left middle cerebral artery (MCA) for 50 min as described previously (Chen H et al., 2005). Mice were anesthetized with 3% isoflurane in 70%: 30% N2O/O2 until they were unresponsive to the tail pinch test. Animals were then fitted with a nose cone blowing 1.5% isoflurane for anesthesia maintenance. The left common carotid artery was exposed and the occipital artery branches of the external carotid artery were isolated and coagulated. […]
Neurological functional deficits in mice were assessed in a blinded manner with the following tests: neurological score, adhesive tape removal test, corner test, cylinder test, and grid walking foot-fault test. These tests are established for identifying and quantifying sensorimotor deficits and postural asymmetries (Bederson J B, et al., 1986; Zhang L, et al., 2002; Schaar K L, et al., 2010).

[2] = test system: transient focal cerebral ischemia (tMCAO) in mice; test: Corner test after tMCAO; assay type: in vivo, mouse; settings: 1-14 days after tMCAO
Excerpt: as §1
as §2, with “coagulated. The internal carotid artery was isolated and the extracranial branch was dissected and ligated.” for “coagulated.”
Neurological functional deficits in mice were determined by the corner test. […]
The numbers of left and right turns of each mouse during 10 trials were recorded, and turning movements that were not part of a rearing movement were not scored (Zhang L, et al., 2002).

[3] = test system: transient focal cerebral ischemia (tMCAO) in mice; test: Neurological score after tMCAO; assay type: in vivo, mouse
Excerpt: as §1
Transient focal cerebral ischemia was induced in mice by intraluminal occlusion of the left middle cerebral artery (MCA) for 50 min as described previously (Chen H et al., 2005). Mice were anesthetized with 3% isoflurane in 70%: 30% N2O/O2 until they were unresponsive to the tail pinch test. Animals were then fitted with a nose cone blowing 1.5% isoflurane for anesthesia maintenance. The left common carotid artery was exposed and the occipital artery branches of the external carotid artery were isolated and coagulated. The internal carotid artery was isolated and the extracranial branch was dissected and ligated. A rubber silicon-coated monofilament suture (6-0) was introduced into the internal carotid artery lumen and gently advanced approximately 8-9 mm to block the MCA blood flow for 50 min. The rectal temperature was maintained at 37.0±0.5° C. during surgery through a temperature-controlled heating pad. Achievement of ischemia was confirmed by monitoring regional cerebral blood flow (rCBF) with laser speckle contrast imager (Pericam). For reperfusion, the suture was withdrawn after the MCAO. The incision was closed and the mouse recovered under a heating lamp to maintain the core temperature (36.0-37.0° C.) during the 30-60 min recovery period. After recovery, animals were returned to their cages with free access to food and water.
Vehicle: DMSO (2 ml/kg body weight/day), the NKCC1 inhibitor bumetanide (BMT, 10 mg/kg body weight/day in DMSO), bumetanide's prodrug STS5 (13 mg/kg body weight/day in DMSO), or the novel NKCC1 inhibitor STS66 according to the invention (12 mg/kg body weight/day in DMSO) was administered via intraperitoneal injection (i.p). The initial half dose of the drugs (BMT, STS5, STS66) was given at 3 h after the onset of reperfusion and the second half dose at 8 h reperfusion in the tMCAO model.
Neurological deficit grading system was used to evaluate neurological deficit at 1, 2, 3, 5, 7, 10 and 14 days after tMCAO as described previously (Bederson J B et al,1986).

[4] = test system: transient focal cerebral ischemia (tMCAO) in mice; test: Grid walking foot-fault test after tMCAO; assay type: in vivo, mouse; settings: day 3 post-stroke
Excerpt: as §1
as §2, with “coagulated. The internal carotid artery was isolated and the extracranial branch was dissected and ligated.” for “coagulated.”
The grid walking test is sensitive to deficits in descending motor control. […] The data were expressed as the number of foot fault errors made by the forelimbs contralateral to the injured hemisphere as a percentage of total steps (Jun Zhang, et al., 2017).

GL26 and SB28-GFP cells = test: BrdU proliferation assay; assay type: cell-based, mouse; settings: 48 h drug treatment, compared to BMT
Protocol: FIG. 7: BrdU incorporation of GL26 cells and SB28-GFP cells following 48 h drug treatment. Data are means±SEM from three independent experiments. **P<0.01, ***p<0.001, ****p<0.0001.
Cell proliferation of GL26 and SB28-GFP cells was measured by quantifying BrdU incorporation. GL26 cells (5×10^3 cells/well) or SB28-GFP cells (1×10^3 cells/well) were seeded in 96-well plates in 100 μL media. After 24 hours in culture, cells were incubated with fresh medium plus the following reagents: DMSO vehicle (Con-Veh), BMT (B, 10 μM), TMZ (100 μM), or TMZ+B for 48 h. BrdU was added in the last 4 h period of the whole 48 h incubation. The incorporation of BrdU into newly synthesized DNA of proliferating cells was detected by using a peroxidase-conjugated antibody which reacts with the thymidine analogue BrdU. Bound anti-BrdU-peroxidase conjugated antibody was measured by a substrate reaction, and then quantified colorimetrically by an ELISA plate reader (Spectra MAX 190, Molecular Devices, Sunnyvale, CA) at dual wavelength of 450/550 nm.

SMILES | sensorimotor deficits [1] | corner test outcome [2] | neurological deficit score ([3]; day 5) | neurological deficit score ([3]; day 10) | foot-fault rate [4] [%] | inhibition of cell proliferation (BrdU incorporation) (GL26 and SB28-GFP cells) | neurological deficit score ([3]; day 1 post-reperfusion) | neurological deficit score ([3]; day 14 post-reperfusion)
CCCCNc1cc(C(=O)O)cc(S(N)(=O)=O)c1Oc1ccccc1 [BMT, 3-(butylamino)-4-phenoxy-5-sulfamoylbenzoic acid, reference compound] | improved all sensorimotor deficits | exhibited neuroprotective effects | 3.8±0.4 | 2.5±0.5 |  |  |  | 
CCCCNc1cc(CNCC(F)(F)F)cc(S(N)(=O)=O)c1Oc1ccccc1 [STS66, 3-(Butylamino)-2-phenoxy-5-[(2,2,2-trifluoroethylamino)methyl]benzenesulfonamide] | improved all sensorimotor deficits | definite superior effects at every testing day |  |  | 12.5±2.5 | more inhibition of GL26 and SB28-GFP cell proliferation than BMT | 4.0±0.0 | 1.2±0.4
